Values quoted from earlier work as cited in US20240238442A1, “LIPOSOMES DISPLAYING A GLYCAN LIGAND FOR CD33 AND THEIR USE IN THE TREATMENT OF ALZHEIMER'S DISEASE” (THE GOVERNORS OF THE UNIVERSITY OF ALBERTA, priority 2021, published 2024).

Target: CD33 (Homo sapiens, UniProt P20138)
Conditions: free ligand

Chain of CD33 (P20138 18-364): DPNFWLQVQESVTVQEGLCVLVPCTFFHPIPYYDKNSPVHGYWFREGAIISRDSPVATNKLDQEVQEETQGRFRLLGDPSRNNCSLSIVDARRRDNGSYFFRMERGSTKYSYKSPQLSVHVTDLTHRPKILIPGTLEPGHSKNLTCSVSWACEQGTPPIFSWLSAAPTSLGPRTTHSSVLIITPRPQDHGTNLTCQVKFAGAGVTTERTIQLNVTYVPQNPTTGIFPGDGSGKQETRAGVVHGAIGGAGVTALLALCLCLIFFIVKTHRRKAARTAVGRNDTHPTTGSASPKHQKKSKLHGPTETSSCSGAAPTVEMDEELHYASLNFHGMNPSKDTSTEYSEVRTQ

Kd: 87 µM
Structure (SMILES): Cc1cc(C(=O)NC[C@@H](O)CC2O[C@@](OCC3OC(O[C@@H]4C(CO)O[C@@H](OCCN)C(O)C4O)C(O)C(O)[C@H]3O)(C(=O)O)CC(O)[C@H]2C(O)NC(=O)Cn2cc(C3CCCCC3)nn2)cc(C)c1O (stereo partly shown) [CD33L]
